Results from patent publication US20130143830A1, “AGENTS FOR COMBATING AND REDUCING THE IRRITATING ACTION OF SURFACTANTS IN COMPOSITIONS TO BE APPLIED TO THE SKIN FOR CARE OR CLEANSING OF THE FACE AND BODY” (GIULIANI S.P.A, priority 2008, published 2013).

Columns and labels:
[1] = test system: EPISKIN model of reconstructed human epidermis; test: MTT cell viability test on EPISKIN model (in vitro skin irritation); assay type: cell-based
Protocol: 2.1.1 EPISKIN™ model (EPISKIN-SM™), EPISKIN SNC Lyon, France, is a model of reconstructed human epidermis. The human keratinocytes are seeded on a dermal substitute consisting of a collagen type I matrix coated with type IV collagen. A highly differentiated and stratified epidermis model is obtained after a 13-day culture period comprising the basal, suprabasal, spinous and granular layers and a functional stratum corneum (Tinois et al., 1984). The model is used in the skin irritation applying the substances being examined at topical level to the epidermis and subsequently assessing cell viability.
10 μl of the solutions were applied to the surface of the epidermis for 15 minutes, followed by 42 hours of recovery.
VitroScreen is implementing a quality system in compliance with the GLP regulations (2004/9/CE and 2004/10/CE) in preparation of the GLP Audit and relative certification. The methods utilized in the study were entered in the list of VitroScreen methods. Following a validation study coordinated by ECVAM the Episkin test system was validated by the ESAC (27/04/07); this uses a model of epidermis reconstructed in vitro—EPISKIN—to assess skin irritation produced by chemical substances for hazard identification and R38 classification: cell viability is quantified after 15 min of exposure +42 h of recovery. Quantification of IL-1α with the ELISA method is part of the validated method for skin irritation as it allows the substances to be distinguished even when there is no decrease in cell viability.
The MTT test is considered an international standard for quantification of cytotoxicity (ISO 10993-5). The method allows quantification of the cytotoxic effect produced by the product through measuring cell viability. Cytotoxicity is quantified by measuring the decrease in cell viability compared to an untreated negative control. It is based on the metabolizing reaction which takes place between the salt of tetrazolium (MTT) and the mitochondrial enzymes (succinate dehydrogenase) after contact with the product for the various treatment times: only the viable cell can transform the salt of tetrazolium into the insoluble derivative (Formazan), reaction which is highlighted by the formation of a purple color at the bottom of the insert.
Metabolization of the salt takes place at the level of the basal cells of the epithelium in the area above the polycarbonate support.
The purple colored derivative is extracted in isopropanol and quantified spectrophotometrically at 570 nm.
At the end of treatment and post-incubation with the substances being examined, the EPISKIN models are transferred to 12 well plates, filled with 2 ml of MTT (used at the concentration of 0.3 mg/ml in the assay medium) and the test is conducted for 3 hours at 37° C., 5% CO2, 90% humidity.
The formazan is extracted from the tissue in Eppendorf tubes with 500 μl of acidified isopropanol (0.04 N HCL final concentration) with incubation in the dark under stirring for 4 hours at room temperature.
10 μl of the substances being examined, of the positive (SDS 5%) and negative (sterile water) control are applied to the surface of the epidermis.
The treated tissues are maintained at room temperature for 15 minutes (±0.5 minutes).
At the end of incubation the tissues are washed 2-3 times with PBS and placed in an incubator with fresh maintenance medium for 42 hours of recovery.
The TEER is measured post-treatment and the MTT test is then conducted for 3 hours at 37° C. and formazan is subsequently extracted for 4 hours as described in the methods.
At the end of the test 2×200 μl of sample for each well are transferred to 96 well plates and read spectrophotometrically at 570 nm.
The optical densities are recorded directly by the Microplate autoreader (TECAN INFINITE M-200), exported to Excel files and the cell viability % is calculated compared to the optical density of the negative control. […]

[2] = pH of the prepared solutions; assay type: physicochemical; settings: positive control solution
Protocol: The solutions are prepared and the pH is measured.

For `CC1(C)[C@@H](O[C@H]2O[C@H](C(=O)O)[C@@H](O)[C@H](O)[C@H]2O[C@@H]2O[C@H](C(=O)O)[C@@H](O)[C@H](O)[C@H]2O)CC[C@]2(C)[C@H]3C(=O)C=C4[C@@H]5C[C@@](C)(C(=O)O)CC[C@]5(C)CC[C@@]4(C)[C@]3(C)CC[C@@H]12.N` [MAG, monoammonium glycyrrhizinate], the “irritation classification by predictive model” value ([1]; MAG at 2%) was “non-irritant”, the cytotoxic effects ([1]; MAG at 2%, 15 min exposure + 42 h recovery) was “no cytotoxic effects” and the “irritation classification by predictive model” value ([1]; MAG at 2%, listed as Mono-Ammonium Glycyrrhizate) was “NON IRRITANT (NI)”. For the same compound, the “irritation classification by predictive model” value ([1]; MAG at 5%) was “non-irritant”, the loss of viability ([1]; MAG at 5%, 15 min exposure + 42 h recovery) was 20% and the “irritation classification by predictive model” value ([1]; MAG at 5%, listed as Mono-Ammonium Glycyrrhizate) was “NON IRRITANT (NI)”.

For `CCCCCCCCCCCCOS(=O)(=O)[O-].[Na+]` [SDS 5%, sodium dodecyl sulfate, reference compound], the reduction in viability ([1]; SDS 5%, 10 μl, 15 min exposure + 42 h recovery, vs negative control) was 80%, the “irritation classification by predictive model” value ([1]; solution as tested, 15 min exposure + 42 h recovery, cut-off 50% viability, sulfate) was “R38 irritant” and the pH [2] was 5.80.
